Assay results published in ChEMBL document CHEMBL2034842, “Synthesis, anti-Candida activity, and cytotoxicity of new (4-(4-iodophenyl)thiazol-2-yl)hydrazine derivatives” (Eur J Med Chem, 2012).
Converted amounts (≈) assume the structure as drawn.

Key:
Type in all cases: functional
Klebsiella pneumoniae = test: Antibacterial activity against Klebsiella pneumoniae after 18 to 22 hrs by […]
Candida tropicalis = test: Antifungal activity against 4 strains of Candida tropicalis after 24 hrs by […]
Proteus vulgaris = test: Antibacterial activity against Proteus vulgaris after 18 to 22 hrs by […]
[Candida] sake = Antifungal activity against 2 strains of Candida sake after 24 hrs by […]; details: Fermentozyma sake
Nakaseomyces glabratus = test: Antifungal activity against 4 strains of Candida glabrata after 24 hrs by […]
Staphylococcus aureus = test: Antibacterial activity against Staphylococcus aureus after 18 to 22 hrs by […]
Klebsiella aerogenes = test: Antibacterial activity against Enterobacter aerogenes after 18 to 22 hrs by […]
Candida parapsilosis = test: Antifungal activity against 4 strains of Candida parapsilosis after 24 hrs by […]; details: Lodderomyces parapsilosis
Candida albicans = test: Antifungal activity against 10 strains of Candida albicans after 24 hrs by […]
Streptococcus pyogenes = test: Antibacterial activity against Streptococcus pyogenes after 18 to 22 hrs by […]
Escherichia coli = test: Antibacterial activity against Escherichia coli after 18 to 22 hrs by […]
Enterococcus faecalis = test: Antibacterial activity against Enterococcus faecalis after 18 to 22 hrs by […]
Staphylococcus warneri = test: Antibacterial activity against Staphylococcus warneri after 18 to 22 hrs by […]
Pichia kudriavzevii = test: Antifungal activity against 3 strains of Candida krusei after 24 hrs by […]

| SMILES | MIC (Klebsiella pneumoniae) | MIC (Candida tropicalis) | MIC (Proteus vulgaris) | MIC ([Candida] sake) | MIC (Nakaseomyces glabratus) | MIC (Staphylococcus aureus) | MIC (Klebsiella aerogenes) | MIC (Candida parapsilosis) | MIC (Candida albicans) | MIC (Streptococcus pyogenes) | MIC (Escherichia coli) | MIC (Enterococcus faecalis) | MIC (Staphylococcus warneri) | MIC (Pichia kudriavzevii) |
| --- | --- | --- | --- | --- | --- | --- | --- | --- | --- | --- | --- | --- | --- | --- |
| Ic1ccc(-c2csc(NN=C3CCCC3)n2)cc1 | > 128 µg/mL | 0.5 µg/mL (≈ 1.3 µM) | 32 µg/mL (≈ 83.5 µM) | 32 µg/mL (≈ 83.5 µM) | 2 µg/mL (≈ 5.22 µM) | 32 µg/mL (≈ 83.5 µM) | > 128 µg/mL | 2 µg/mL (≈ 5.22 µM) | 2 µg/mL (≈ 5.22 µM) | 8 µg/mL (≈ 20.9 µM) | > 128 µg/mL | 8 µg/mL (≈ 20.9 µM) | 8 µg/mL (≈ 20.9 µM) | 2 µg/mL (≈ 5.22 µM) |
| CC(C)(O/N=C(\C(=O)N[C@@H]1C(=O)N2C(C(=O)[O-])=C(C[n+]3ccccc3)CS[C@H]12)c1csc(N)n1)C(=O)O [CEFTAZIDIME] | 2 µg/mL (≈ 3.66 µM) |  | 2 µg/mL (≈ 3.66 µM) |  |  | 0.5 µg/mL (≈ 0.915 µM) | 2 µg/mL (≈ 3.66 µM) |  |  | 0.5 µg/mL (≈ 0.915 µM) | 4 µg/mL (≈ 7.32 µM) | 0.5 µg/mL (≈ 0.915 µM) | 0.5 µg/mL (≈ 0.915 µM) |  |
| C/C(=N\Nc1nc(-c2ccc(I)cc2)cs1)c1ccccn1 | 32 µg/mL (≈ 76.1 µM) | 0.5 µg/mL (≈ 1.19 µM) | > 128 µg/mL | 64 µg/mL (≈ 152 µM) | 2 µg/mL (≈ 4.76 µM) | 32 µg/mL (≈ 76.1 µM) | > 128 µg/mL | 2 µg/mL (≈ 4.76 µM) | 0.25 µg/mL (≈ 0.595 µM) | > 128 µg/mL | > 128 µg/mL | > 128 µg/mL | > 128 µg/mL | 64 µg/mL (≈ 152 µM) |
| Ic1ccc(-c2csc(NN=C3CCCCC3)n2)cc1 | > 128 µg/mL | 2 µg/mL (≈ 5.03 µM) | > 128 µg/mL | 16 µg/mL (≈ 40.3 µM) | 2 µg/mL (≈ 5.03 µM) | 32 µg/mL (≈ 80.5 µM) | > 128 µg/mL | 2 µg/mL (≈ 5.03 µM) | 0.5 µg/mL (≈ 1.26 µM) | 8 µg/mL (≈ 20.1 µM) | > 128 µg/mL | 32 µg/mL (≈ 80.5 µM) | 32 µg/mL (≈ 80.5 µM) | 2 µg/mL (≈ 5.03 µM) |
| Ic1ccc(-c2csc(N/N=C/c3ccncc3)n2)cc1 | > 128 µg/mL | 0.5 µg/mL (≈ 1.23 µM) | > 128 µg/mL | 128 µg/mL (≈ 315 µM) | 2 µg/mL (≈ 4.92 µM) | 32 µg/mL (≈ 78.8 µM) | > 128 µg/mL | 2 µg/mL (≈ 4.92 µM) | 0.25 µg/mL (≈ 0.615 µM) | 2 µg/mL (≈ 4.92 µM) | > 128 µg/mL | 2 µg/mL (≈ 4.92 µM) | 32 µg/mL (≈ 78.8 µM) | 128 µg/mL (≈ 315 µM) |
| Ic1ccc(-c2csc(N/N=C/c3ccco3)n2)cc1 | 32 µg/mL (≈ 81 µM) | 2 µg/mL (≈ 5.06 µM) | 16 µg/mL (≈ 40.5 µM) | 64 µg/mL (≈ 162 µM) | 4 µg/mL (≈ 10.1 µM) | > 128 µg/mL | 32 µg/mL (≈ 81 µM) | 2 µg/mL (≈ 5.06 µM) | 0.5 µg/mL (≈ 1.27 µM) | 32 µg/mL (≈ 81 µM) | 32 µg/mL (≈ 81 µM) | 32 µg/mL (≈ 81 µM) | > 128 µg/mL | 64 µg/mL (≈ 162 µM) |
| CC1CCC(=NNc2nc(-c3ccc(I)cc3)cs2)CC1 (centres undefined) | > 128 µg/mL | 2 µg/mL (≈ 4.86 µM) | > 128 µg/mL | 64 µg/mL (≈ 156 µM) | 2 µg/mL (≈ 4.86 µM) | 32 µg/mL (≈ 77.8 µM) | > 128 µg/mL | 2 µg/mL (≈ 4.86 µM) | 0.5 µg/mL (≈ 1.22 µM) | 2 µg/mL (≈ 4.86 µM) | > 128 µg/mL | 4 µg/mL (≈ 9.72 µM) | 32 µg/mL (≈ 77.8 µM) | 64 µg/mL (≈ 156 µM) |
| C/C(=N\Nc1nc(-c2ccc(I)cc2)cs1)c1ccc2ccccc2c1 | 16 µg/mL (≈ 34.1 µM) | 2 µg/mL (≈ 4.26 µM) | 16 µg/mL (≈ 34.1 µM) | 64 µg/mL (≈ 136 µM) | 4 µg/mL (≈ 8.52 µM) | 8 µg/mL (≈ 17 µM) | 16 µg/mL (≈ 34.1 µM) | 2 µg/mL (≈ 4.26 µM) | 2 µg/mL (≈ 4.26 µM) | 8 µg/mL (≈ 17 µM) | 16 µg/mL (≈ 34.1 µM) | 4 µg/mL (≈ 8.52 µM) | 4 µg/mL (≈ 8.52 µM) | 64 µg/mL (≈ 136 µM) |
| Ic1ccc(-c2csc(NN=C3CCCCCC3)n2)cc1 | > 128 µg/mL | 0.5 µg/mL (≈ 1.22 µM) | 16 µg/mL (≈ 38.9 µM) | 64 µg/mL (≈ 156 µM) | 2 µg/mL (≈ 4.86 µM) | > 128 µg/mL | 16 µg/mL (≈ 38.9 µM) | 2 µg/mL (≈ 4.86 µM) | 0.25 µg/mL (≈ 0.608 µM) | 32 µg/mL (≈ 77.8 µM) | 16 µg/mL (≈ 38.9 µM) | 32 µg/mL (≈ 77.8 µM) | > 128 µg/mL | 64 µg/mL (≈ 156 µM) |
| COC1=CC(=O)C[C@@H](C)[C@]12Oc1c(Cl)c(OC)cc(OC)c1C2=O [GRISEOFULVIN] |  | 8 µg/mL (≈ 22.7 µM) |  | 8 µg/mL (≈ 22.7 µM) | 8 µg/mL (≈ 22.7 µM) |  |  | 8 µg/mL (≈ 22.7 µM) | 8 µg/mL (≈ 22.7 µM) |  |  |  |  | 8 µg/mL (≈ 22.7 µM) |
| C/C(=N\Nc1nc(-c2ccc(I)cc2)cs1)c1ccco1 | > 128 µg/mL | 0.5 µg/mL (≈ 1.22 µM) | > 128 µg/mL | 128 µg/mL (≈ 313 µM) | 2 µg/mL (≈ 4.89 µM) | 32 µg/mL (≈ 78.2 µM) | > 128 µg/mL | 2 µg/mL (≈ 4.89 µM) | 0.25 µg/mL (≈ 0.611 µM) | 2 µg/mL (≈ 4.89 µM) | > 128 µg/mL | 8 µg/mL (≈ 19.5 µM) | 32 µg/mL (≈ 78.2 µM) | 128 µg/mL (≈ 313 µM) |
| CC1CCCC/C1=N\Nc1nc(-c2ccc(I)cc2)cs1 (centres undefined) | 32 µg/mL (≈ 77.8 µM) | 0.5 µg/mL (≈ 1.22 µM) | > 128 µg/mL | 128 µg/mL (≈ 311 µM) | 2 µg/mL (≈ 4.86 µM) | 8 µg/mL (≈ 19.4 µM) | > 128 µg/mL | 2 µg/mL (≈ 4.86 µM) | 0.25 µg/mL (≈ 0.608 µM) | 8 µg/mL (≈ 19.4 µM) | 16 µg/mL (≈ 38.9 µM) | 8 µg/mL (≈ 19.4 µM) | 4 µg/mL (≈ 9.72 µM) | 128 µg/mL (≈ 311 µM) |
| Ic1ccc(-c2csc(N/N=C/c3ccc4c(c3)OCO4)n2)cc1 | > 128 µg/mL | 2 µg/mL (≈ 4.45 µM) | > 128 µg/mL | 4 µg/mL (≈ 8.9 µM) | 4 µg/mL (≈ 8.9 µM) | 32 µg/mL (≈ 71.2 µM) | > 128 µg/mL | 2 µg/mL (≈ 4.45 µM) | 2 µg/mL (≈ 4.45 µM) | > 128 µg/mL | > 128 µg/mL | 32 µg/mL (≈ 71.2 µM) | 32 µg/mL (≈ 71.2 µM) | 2 µg/mL (≈ 4.45 µM) |
| C/C(=N\Nc1nc(-c2ccc(I)cc2)cs1)c1cccs1 | > 128 µg/mL | 2 µg/mL (≈ 4.7 µM) | > 128 µg/mL | 4 µg/mL (≈ 9.4 µM) | 4 µg/mL (≈ 9.4 µM) | 32 µg/mL (≈ 75.2 µM) | > 128 µg/mL | 0.5 µg/mL (≈ 1.18 µM) | 2 µg/mL (≈ 4.7 µM) | > 128 µg/mL | > 128 µg/mL | > 128 µg/mL | 32 µg/mL (≈ 75.2 µM) | 2 µg/mL (≈ 4.7 µM) |
| OC(Cn1cncn1)(Cn1cncn1)c1ccc(F)cc1F [FLUCONAZOLE] |  | 4 µg/mL (≈ 13.1 µM) |  | 4 µg/mL (≈ 13.1 µM) | 4 µg/mL (≈ 13.1 µM) |  |  | 4 µg/mL (≈ 13.1 µM) | 4 µg/mL (≈ 13.1 µM) |  |  |  |  | 4 µg/mL (≈ 13.1 µM) |
| C/C(=N\Nc1nc(-c2ccc(I)cc2)cs1)c1cc2ccccc2oc1=O | > 128 µg/mL | 2 µg/mL (≈ 4.1 µM) | > 128 µg/mL | 4 µg/mL (≈ 8.21 µM) | 4 µg/mL (≈ 8.21 µM) | 32 µg/mL (≈ 65.7 µM) | > 128 µg/mL | 2 µg/mL (≈ 4.1 µM) | 2 µg/mL (≈ 4.1 µM) | 4 µg/mL (≈ 8.21 µM) | 16 µg/mL (≈ 32.8 µM) | 8 µg/mL (≈ 16.4 µM) | 4 µg/mL (≈ 8.21 µM) | 2 µg/mL (≈ 4.1 µM) |
| Ic1ccc(-c2csc(N/N=C/c3cccs3)n2)cc1 | > 128 µg/mL | 2 µg/mL (≈ 4.86 µM) | > 128 µg/mL | 128 µg/mL (≈ 311 µM) | 4 µg/mL (≈ 9.73 µM) | 32 µg/mL (≈ 77.8 µM) | > 128 µg/mL | 2 µg/mL (≈ 4.86 µM) | 2 µg/mL (≈ 4.86 µM) | 2 µg/mL (≈ 4.86 µM) | > 128 µg/mL | 32 µg/mL (≈ 77.8 µM) | 32 µg/mL (≈ 77.8 µM) | 128 µg/mL (≈ 311 µM) |
| C/C(=N\Nc1nc(-c2ccc(I)cc2)cs1)c1cccnc1 | 32 µg/mL (≈ 76.1 µM) | 0.5 µg/mL (≈ 1.19 µM) | 16 µg/mL (≈ 38.1 µM) | 64 µg/mL (≈ 152 µM) | 2 µg/mL (≈ 4.76 µM) | > 128 µg/mL | > 128 µg/mL | 2 µg/mL (≈ 4.76 µM) | 0.25 µg/mL (≈ 0.595 µM) | 32 µg/mL (≈ 76.1 µM) | 32 µg/mL (≈ 76.1 µM) | 32 µg/mL (≈ 76.1 µM) | > 128 µg/mL | 64 µg/mL (≈ 152 µM) |
| CC1CCC/C(=N\Nc2nc(-c3ccc(I)cc3)cs2)C1 (centres undefined) | > 128 µg/mL | 2 µg/mL (≈ 4.86 µM) | > 128 µg/mL | 128 µg/mL (≈ 311 µM) | 4 µg/mL (≈ 9.72 µM) | 32 µg/mL (≈ 77.8 µM) | > 128 µg/mL | 2 µg/mL (≈ 4.86 µM) | 2 µg/mL (≈ 4.86 µM) | 4 µg/mL (≈ 9.72 µM) | > 128 µg/mL | 8 µg/mL (≈ 19.4 µM) | 4 µg/mL (≈ 9.72 µM) | 128 µg/mL (≈ 311 µM) |
